Where two headings read alike, the source gives them in different places.
Tests used:
[1] = intravenous, two adult women, cited from earlier work
[2] = system: uterus; settings: continuous administration from a subcutaneous depot; Martucci et al., 1977; cited from earlier work
[3] = system: immature rat uterus; settings: subcutaneously administered, Holinka et al., cited from earlier work
[4] = target: human ERα (Homo sapiens (Human), UniProt P03372); test: Competitive steroid binding assay, recombinant human ERα, [3H]E2 as labeled ligand; settings: Cheng and Prusoff from measured IC50
Chain of human ERα (P03372 whole entry): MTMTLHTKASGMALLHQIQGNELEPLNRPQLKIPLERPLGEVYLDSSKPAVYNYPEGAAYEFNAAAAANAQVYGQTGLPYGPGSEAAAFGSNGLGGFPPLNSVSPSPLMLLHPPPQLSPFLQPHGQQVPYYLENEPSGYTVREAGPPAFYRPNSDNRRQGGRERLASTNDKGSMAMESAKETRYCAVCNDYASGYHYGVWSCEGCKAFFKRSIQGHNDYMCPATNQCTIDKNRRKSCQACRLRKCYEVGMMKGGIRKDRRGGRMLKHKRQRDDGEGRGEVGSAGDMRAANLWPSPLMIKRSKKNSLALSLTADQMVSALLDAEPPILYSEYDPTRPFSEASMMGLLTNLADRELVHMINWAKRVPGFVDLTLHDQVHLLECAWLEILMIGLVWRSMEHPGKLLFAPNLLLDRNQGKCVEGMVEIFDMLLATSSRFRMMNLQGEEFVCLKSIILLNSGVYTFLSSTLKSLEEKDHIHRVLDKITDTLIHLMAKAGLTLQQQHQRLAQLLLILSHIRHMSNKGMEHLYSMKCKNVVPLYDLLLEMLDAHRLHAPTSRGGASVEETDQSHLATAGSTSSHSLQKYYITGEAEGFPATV

[5] = system: rat uterine cytosol estrogen receptor; settings: cited from earlier work
[6] = system: estrogen receptor in the human endometrium; settings: Tseng et al., cited from earlier work
[7] = system: rat uterine nuclear estrogen receptor; settings: cited from earlier work
[8] = Elimination half-life after single subcutaneous administration in rats; format: in vivo; settings: female, Sprague Dawley, rat; single sc dose 0.05, 0.5 or 5 mg/kg in arachidis oil; plasma
Experimental: To determine the in vivo stability of estetrol (E4) its elimination half-life in female Sprague Dawley rats was determined after a single subcutaneous administration (sc) at several dose levels.
Female Sprague Dawley rats were equipped with a permanent silatic heart catheter, as described by Kuipers et al. (1985, Gastroenterology, 88, 403-411). Rats were allowed to recover from surgery for 5 days and were than administered 0.05, 0.5, or 5 mg/kg E4 in 0.5 ml arachidis oil. E4 was injected in the neck area using a 1 ml syringe and 20 g needle. Blood samples were subsequently collected via the heart catheter in heparinized tubes at 0.5, 1, 2, 4, 8 and 24 hours. Erythrocytes were removed by centrifugation at 5000×g for 10 minutes at 4° C. and blood plasma was stored at −20° C. […] With each sample batch, a calibration curve with 6 calibrators was recorded. The calibration curve was calculated using linear regression (correlation coefficient>0.98), which permitted quantitation of plasma concentrations. […]
Plasma E4 concentration data were analysed with “WinNonLin, edition 3.1” and involved pharmacokinetic parameters for Cmax, AUC0-24 and half-life.

[9] = system: uterine vasodilation; settings: intravenously administered; cited from earlier work
[10] = target: human ERβ (Homo sapiens (Human), UniProt Q92731); test: Competitive steroid binding assay, recombinant human ERβ, [3H]E2 as labeled ligand; settings: Cheng and Prusoff from measured IC50
Chain of human ERβ (Q92731 whole entry): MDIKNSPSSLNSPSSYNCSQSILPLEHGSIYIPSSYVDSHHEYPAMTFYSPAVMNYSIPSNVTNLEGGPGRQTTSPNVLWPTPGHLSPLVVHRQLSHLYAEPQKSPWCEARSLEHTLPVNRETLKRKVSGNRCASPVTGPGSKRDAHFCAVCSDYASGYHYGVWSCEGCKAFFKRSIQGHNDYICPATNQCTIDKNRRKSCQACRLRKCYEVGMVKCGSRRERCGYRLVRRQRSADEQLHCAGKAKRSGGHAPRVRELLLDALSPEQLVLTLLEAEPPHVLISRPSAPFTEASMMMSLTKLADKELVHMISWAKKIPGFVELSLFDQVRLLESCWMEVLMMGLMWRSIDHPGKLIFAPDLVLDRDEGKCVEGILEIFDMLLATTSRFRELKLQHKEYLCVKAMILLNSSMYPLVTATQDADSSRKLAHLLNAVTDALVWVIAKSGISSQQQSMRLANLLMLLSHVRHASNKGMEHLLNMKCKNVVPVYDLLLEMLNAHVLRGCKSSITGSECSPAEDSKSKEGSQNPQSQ

[11] = system: human breast cancer cells (MCF-7); settings: MCF-7, long term tissue culture; cited from earlier work

Ki [4]: 4.9 nM
half-life [8]: 2 to 3 h
Ki [10]: 19 nM
Structure (SMILES): C[C@]12CC[C@@H]3c4ccc(O)cc4CC[C@H]3[C@@H]1[C@@H](O)[C@@H](O)[C@@H]2O [E4, 1,3,5 (10)-estratrien-3,15α,16α,17β-tetrol]
excretion ([1]; urine): rapidly and completely excreted in urine as the glucosiduronate
metabolism [1]: virtually no metabolism except for conjugation took place
uterotrophic activity [2]: very weak uterotrophic activity
uterotrophic activity [3]; 1979: very weak uterotrophic activity
uterotrophic activity [3]; 1980: very weak uterotrophic activity
relative binding affinity, of 17β-estradiol (100%) [5]: 0.5%
relative binding constant compared to 17β-estradiol (100%) [6]; 1976: 6.25%
relative binding to estrogen receptors, of 17β-estradiol [6]; 1978: 1.5%
relative binding affinity, of 17β-estradiol (100%) [7]: 0.3%
potency in uterine vasodilation, times less potent than estriol and 17β-estradiol [9]: 15 to 30 times
agonistic potency in in vitro cell proliferation relative to 17β-estradiol [11]: 2%
